Consider three compounds from patent publication US20100286038A1, “FORMULATION CONTAINING CYCLIN-DEPENDENT KINASE INHIBITING COMPOUND AND METHOD OF TREATING TUMORS USING THE SAME” (priority 2007, published 2010).

The subject of one data set is A549 NSCLC xenografts. The following applies: mouse, in vivo.
Data set [1] relates to A2780 ovarian carcinoma xenografts. Description: A2780 xenograft ovarian cancer model. Type of data set: in vivo, nude mice.
A further data set addresses T1, PKCβII (Homo sapiens, UniProt P05771).
T1 construct: purchased Upstate
The data set is described as follows: Upstate kinase Profiler counter-screening. Type of data set: biochemical. (Counterscreens check selectivity or assay interference.)

The next data set concerns AMPK. The data set is described as follows: Upstate kinase Profiler counter-screening. It counts as biochemical.
Data set [2] concerns A2780 cells. The following applies: 16 hours exposure.
Description: Accumulation of the p85 PARP product was also monitored to assess activation of caspases and correlate inhibition of CDKs with the onset of apoptosis.
In the next data set the target is T2, CDK6/cyclinD3 (Homo sapiens, UniProt Q00534).
T2 construct: purchased Upstate
The data set is described as follows: Upstate kinase Profiler counter-screening. It counts as biochemical.

For the next data set, the target named is T3, Fes (Homo sapiens, UniProt P07332).
T3 construct: purchased Upstate
The data set is described as follows: Upstate kinase Profiler counter-screening. It counts as biochemical.

The target of the next data set is T4, Lyn (Homo sapiens, UniProt P07948).
T4 construct: purchased Upstate
The data set is described as follows: Upstate kinase Profiler counter-screening. Type of data set: biochemical.

The next data set has as its target T5, Rsk2 (Homo sapiens, UniProt P51812).
T5 construct: purchased Upstate
Description: Upstate kinase Profiler counter-screening. Type of data set: biochemical.

A further data set concerns the target T6, MSK1 (Homo sapiens, UniProt O75582).
T6 construct: purchased Upstate
Description: Upstate kinase Profiler counter-screening. It counts as biochemical.

A further data set has as its target T7, cSRC (Homo sapiens, UniProt P12931).
T7 construct: purchased Upstate
Description: Upstate kinase Profiler counter-screening. It counts as biochemical.

A short description of the next data set: in vivo. The conditions noted are these: nude, mouse, ip.
Another data set deals with T8, PKCθ (Homo sapiens, UniProt Q04759).
T8 construct: purchased Upstate
The data set is described as follows: Upstate kinase Profiler counter-screening. Type of data set: biochemical.

The test system of data set [3] is A2780 cells. Description: in-cell inhibition of thymidine incorporation. Type of data set: cell-based. The conditions noted are these: Homo sapiens. (In general: Uptake of a labelled nucleoside into DNA is a usual measure of proliferation.)
For another data set, the target named is T9, YES (Homo sapiens, UniProt P07947).
T9 construct: purchased Upstate
Description: Upstate kinase Profiler counter-screening. Type of data set: biochemical.

A further data set addresses T10, PKCε (Homo sapiens, UniProt Q02156).
T10 construct: purchased Upstate
T10 sequence (Q02156 1-737): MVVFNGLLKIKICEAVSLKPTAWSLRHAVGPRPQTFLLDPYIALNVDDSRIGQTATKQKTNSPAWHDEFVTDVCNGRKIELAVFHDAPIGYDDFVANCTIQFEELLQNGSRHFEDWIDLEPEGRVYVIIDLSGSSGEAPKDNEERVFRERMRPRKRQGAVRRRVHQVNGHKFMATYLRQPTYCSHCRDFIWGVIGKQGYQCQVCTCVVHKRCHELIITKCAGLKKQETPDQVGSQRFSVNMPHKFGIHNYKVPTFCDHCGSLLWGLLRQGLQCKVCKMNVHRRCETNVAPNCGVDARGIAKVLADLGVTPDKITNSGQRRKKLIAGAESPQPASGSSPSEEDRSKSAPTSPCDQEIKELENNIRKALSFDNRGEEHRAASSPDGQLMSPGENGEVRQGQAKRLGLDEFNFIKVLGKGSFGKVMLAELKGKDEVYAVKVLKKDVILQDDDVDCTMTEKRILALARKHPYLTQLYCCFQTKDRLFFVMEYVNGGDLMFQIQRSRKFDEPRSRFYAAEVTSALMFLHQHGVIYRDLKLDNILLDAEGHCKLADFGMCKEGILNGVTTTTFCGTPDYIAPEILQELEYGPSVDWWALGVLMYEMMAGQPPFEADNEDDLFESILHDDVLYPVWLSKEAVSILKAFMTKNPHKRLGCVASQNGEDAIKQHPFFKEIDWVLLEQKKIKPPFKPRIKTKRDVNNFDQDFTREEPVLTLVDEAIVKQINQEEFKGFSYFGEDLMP
Description: Upstate kinase Profiler counter-screening. It counts as biochemical.

The next data set has as its target T11, PKCα (Homo sapiens, UniProt P17252).
T11 construct: purchased Upstate
Description: Upstate kinase Profiler counter-screening. It counts as biochemical.

In the next data set the test system is CaMKII. It counts as biochemical.
The target in another data set is T12, CDK7/cyclinH/MAT1 (Homo sapiens, UniProt P50613).
T12 construct: purchased Upstate
The data set is described as follows: Upstate kinase Profiler counter-screening. Type of data set: biochemical.

The next data set relates to H82 (SCLC). The data set is described as follows: xenograft tumor model. The following applies: mouse, in vivo.

Like-named read-outs stand apart in the source and are kept apart here.

T7 sequence (P12931 whole entry, species assumed): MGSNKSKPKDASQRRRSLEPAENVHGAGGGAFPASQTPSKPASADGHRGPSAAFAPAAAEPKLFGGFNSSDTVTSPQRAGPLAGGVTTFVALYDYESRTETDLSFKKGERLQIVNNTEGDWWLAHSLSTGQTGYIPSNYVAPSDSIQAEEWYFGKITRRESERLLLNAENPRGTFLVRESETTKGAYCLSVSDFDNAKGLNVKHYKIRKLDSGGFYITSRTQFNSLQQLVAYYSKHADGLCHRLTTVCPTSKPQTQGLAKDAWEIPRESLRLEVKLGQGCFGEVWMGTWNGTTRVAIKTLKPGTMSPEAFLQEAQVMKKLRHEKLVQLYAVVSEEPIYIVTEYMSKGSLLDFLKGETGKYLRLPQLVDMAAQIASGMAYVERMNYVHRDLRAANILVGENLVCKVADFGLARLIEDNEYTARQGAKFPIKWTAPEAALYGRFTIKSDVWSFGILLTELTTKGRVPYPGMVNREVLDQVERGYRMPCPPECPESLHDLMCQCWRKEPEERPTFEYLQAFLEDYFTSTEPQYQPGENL
T5 sequence (P51812 whole entry, species assumed): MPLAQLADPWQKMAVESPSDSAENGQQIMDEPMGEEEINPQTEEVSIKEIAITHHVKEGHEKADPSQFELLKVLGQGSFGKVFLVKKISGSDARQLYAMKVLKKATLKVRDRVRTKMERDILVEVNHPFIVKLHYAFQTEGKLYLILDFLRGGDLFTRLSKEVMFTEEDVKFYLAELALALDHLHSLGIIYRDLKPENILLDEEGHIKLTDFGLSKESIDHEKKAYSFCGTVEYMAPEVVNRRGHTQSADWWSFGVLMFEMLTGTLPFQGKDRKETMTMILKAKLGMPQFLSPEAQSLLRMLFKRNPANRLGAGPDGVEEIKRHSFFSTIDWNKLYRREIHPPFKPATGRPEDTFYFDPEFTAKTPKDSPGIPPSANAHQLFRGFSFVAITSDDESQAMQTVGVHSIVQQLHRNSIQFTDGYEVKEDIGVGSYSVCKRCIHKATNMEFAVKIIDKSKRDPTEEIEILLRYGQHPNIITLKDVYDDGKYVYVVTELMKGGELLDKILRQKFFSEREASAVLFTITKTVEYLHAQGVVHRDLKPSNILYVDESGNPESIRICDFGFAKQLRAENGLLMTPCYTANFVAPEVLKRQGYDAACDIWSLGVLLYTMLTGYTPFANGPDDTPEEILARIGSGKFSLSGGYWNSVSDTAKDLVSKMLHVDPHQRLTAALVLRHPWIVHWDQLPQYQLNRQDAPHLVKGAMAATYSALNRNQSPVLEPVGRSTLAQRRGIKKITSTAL
T6 sequence (O75582 whole entry, species assumed): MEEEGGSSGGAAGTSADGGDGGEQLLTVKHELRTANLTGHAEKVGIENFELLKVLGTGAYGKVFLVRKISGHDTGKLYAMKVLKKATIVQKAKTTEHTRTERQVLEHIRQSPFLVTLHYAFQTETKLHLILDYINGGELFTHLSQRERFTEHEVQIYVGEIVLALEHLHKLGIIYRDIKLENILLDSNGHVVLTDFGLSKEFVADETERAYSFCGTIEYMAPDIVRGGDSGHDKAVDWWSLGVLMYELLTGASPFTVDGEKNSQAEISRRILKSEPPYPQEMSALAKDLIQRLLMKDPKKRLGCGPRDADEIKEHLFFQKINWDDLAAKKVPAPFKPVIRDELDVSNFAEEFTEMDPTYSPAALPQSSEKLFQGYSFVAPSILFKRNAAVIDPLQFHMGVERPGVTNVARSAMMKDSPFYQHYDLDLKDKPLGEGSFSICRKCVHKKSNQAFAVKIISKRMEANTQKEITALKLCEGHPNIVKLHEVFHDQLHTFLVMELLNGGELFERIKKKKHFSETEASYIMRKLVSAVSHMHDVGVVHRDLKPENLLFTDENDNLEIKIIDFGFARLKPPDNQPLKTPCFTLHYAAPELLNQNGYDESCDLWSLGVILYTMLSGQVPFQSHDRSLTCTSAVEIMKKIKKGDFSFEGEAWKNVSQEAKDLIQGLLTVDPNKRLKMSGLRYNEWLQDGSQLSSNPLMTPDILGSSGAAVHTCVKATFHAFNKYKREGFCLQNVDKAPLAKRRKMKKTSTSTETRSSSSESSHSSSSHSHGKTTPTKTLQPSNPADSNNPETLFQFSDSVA
T3 sequence (P07332 whole entry, species assumed): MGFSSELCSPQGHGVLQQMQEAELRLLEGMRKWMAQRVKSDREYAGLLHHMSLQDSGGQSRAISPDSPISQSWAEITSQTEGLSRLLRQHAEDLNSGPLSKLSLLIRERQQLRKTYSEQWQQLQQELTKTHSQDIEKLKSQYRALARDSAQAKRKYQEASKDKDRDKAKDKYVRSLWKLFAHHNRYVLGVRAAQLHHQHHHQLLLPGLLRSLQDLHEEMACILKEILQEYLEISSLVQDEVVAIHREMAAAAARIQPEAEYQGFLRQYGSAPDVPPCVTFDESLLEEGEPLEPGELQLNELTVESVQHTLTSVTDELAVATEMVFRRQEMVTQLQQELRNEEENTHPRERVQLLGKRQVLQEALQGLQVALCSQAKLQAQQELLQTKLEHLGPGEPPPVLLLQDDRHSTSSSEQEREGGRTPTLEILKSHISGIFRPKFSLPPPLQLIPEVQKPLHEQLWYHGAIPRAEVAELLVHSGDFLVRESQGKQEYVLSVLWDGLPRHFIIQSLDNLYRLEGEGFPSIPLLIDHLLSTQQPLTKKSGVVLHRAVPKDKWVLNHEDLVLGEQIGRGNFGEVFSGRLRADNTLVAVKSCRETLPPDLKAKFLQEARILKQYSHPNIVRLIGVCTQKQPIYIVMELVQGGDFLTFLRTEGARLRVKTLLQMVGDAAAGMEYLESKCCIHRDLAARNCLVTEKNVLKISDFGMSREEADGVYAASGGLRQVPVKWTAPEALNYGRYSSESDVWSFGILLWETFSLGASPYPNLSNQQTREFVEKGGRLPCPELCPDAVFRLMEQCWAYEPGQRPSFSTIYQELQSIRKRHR
T9 sequence (P07947 whole entry, species assumed): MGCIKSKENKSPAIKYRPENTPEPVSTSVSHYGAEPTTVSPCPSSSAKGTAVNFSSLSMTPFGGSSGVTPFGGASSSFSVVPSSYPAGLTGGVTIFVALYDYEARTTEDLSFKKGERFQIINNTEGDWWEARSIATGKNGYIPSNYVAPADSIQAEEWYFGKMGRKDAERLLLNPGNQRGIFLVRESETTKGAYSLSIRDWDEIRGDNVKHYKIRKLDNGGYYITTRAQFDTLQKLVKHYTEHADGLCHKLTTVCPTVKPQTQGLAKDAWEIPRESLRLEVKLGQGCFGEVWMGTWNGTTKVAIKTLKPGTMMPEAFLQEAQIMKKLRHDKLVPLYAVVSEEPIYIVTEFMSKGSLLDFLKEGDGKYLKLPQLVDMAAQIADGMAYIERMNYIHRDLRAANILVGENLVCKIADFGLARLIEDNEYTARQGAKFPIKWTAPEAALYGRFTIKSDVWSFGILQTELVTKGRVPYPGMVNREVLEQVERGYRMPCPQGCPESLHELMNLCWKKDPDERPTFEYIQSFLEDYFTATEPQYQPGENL
T8 sequence (Q04759 whole entry): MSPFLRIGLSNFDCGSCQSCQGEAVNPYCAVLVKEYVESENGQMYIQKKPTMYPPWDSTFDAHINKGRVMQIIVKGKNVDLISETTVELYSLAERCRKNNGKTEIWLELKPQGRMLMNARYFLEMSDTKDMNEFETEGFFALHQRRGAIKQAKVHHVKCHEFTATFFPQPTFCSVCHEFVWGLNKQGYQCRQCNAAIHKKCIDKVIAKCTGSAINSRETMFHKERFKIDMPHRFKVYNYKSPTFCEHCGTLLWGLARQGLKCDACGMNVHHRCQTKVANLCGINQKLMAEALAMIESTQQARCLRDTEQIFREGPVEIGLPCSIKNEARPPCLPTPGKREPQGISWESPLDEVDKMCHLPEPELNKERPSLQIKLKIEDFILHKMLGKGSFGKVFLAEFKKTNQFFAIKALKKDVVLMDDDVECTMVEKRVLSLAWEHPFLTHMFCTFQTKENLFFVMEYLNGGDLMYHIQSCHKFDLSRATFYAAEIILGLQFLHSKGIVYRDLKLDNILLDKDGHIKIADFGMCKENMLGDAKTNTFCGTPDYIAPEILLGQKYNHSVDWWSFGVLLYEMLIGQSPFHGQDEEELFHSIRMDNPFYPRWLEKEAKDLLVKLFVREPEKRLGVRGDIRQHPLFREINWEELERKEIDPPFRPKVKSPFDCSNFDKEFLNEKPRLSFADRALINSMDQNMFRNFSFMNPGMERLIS

For `CC(=O)O[C@H]1C(=O)[C@@]2(C)[C@H]([C@H](OC(=O)c3ccccc3)[C@]3(O)C[C@H](OC(=O)[C@H](O)[C@@H](NC(=O)c4ccccc4)c4ccccc4)C(C)=C1C3(C)C)[C@]1(OC(C)=O)CO[C@@H]1C[C@@H]2O` [paclitaxel, reference compound], in the data set with A549 NSCLC xenografts, the “% inhibition observed with benchmark cytotoxic agent” value is listed as 0%. In [1] (20 mg/kg IP twice weekly, ten day period), this compound showed a tumor growth inhibited of 63%.
As to `CN1CC[C@H](c2c(O)cc(O)c3c(=O)cc(-c4ccccc4Cl)oc23)[C@H](O)C1` [Formula III, Flavopiridol, reference compound], the remaining activity at 1 µM at PKCβII (at 1 μM) worked out at 75%; on CDK6/cyclinD3 (at 1 μM), 25%; at Fes (at 1 μM), 44%; at Lyn (at 1 μM) it was 73%; on Rsk2 (at 1 μM) it was 65%; on MSK1 (at 1 μM), 74%. Besides, the remaining activity at 1 µM is 3% on cSRC (at 1 μM); 23% at PKCθ (at 1 μM); 68% on YES (at 1 μM); 45% on PKCε (at 1 μM); 66% at PKCα (at 1 μM); 18% at CDK7/cyclinH/MAT1 (at 1 μM). Besides, the remaining activity at 10 µM on PKCβII (at 10 μM) amounted to 26%; on CDK6/cyclinD3 (at 10 μM), 6%; at Fes (at 10 μM), 13%; at Lyn (at 10 μM), 18%; at Rsk2 (at 10 μM), 18%; at MSK1 (at 10 μM) it was 37%. Besides, the remaining activity at 10 µM on cSRC (at 10 μM) was determined as 4%; on PKCθ (at 10 μM), 5%; on YES (at 10 μM), 40%; on PKCε (at 10 μM) it was 9%; at PKCα (at 10 μM) it was 20%; on CDK7/cyclinH/MAT1 (at 10 μM) it was 6%. In addition, the “% remaining activity” value in the data set with AMPK (at 1 μM) turned out to be 67%; with AMPK (at 10 μM), 20%; in the data set on CaMKII (at 1 μM), 44%; with CaMKII (at 10 μM) it was 30%. Besides, the “concentration required to induce detectable effects on phospho-Ser 807/811 levels” value in the data set on A2780 cells [2] was “about 1 micromolar”. Further, the MED in data set [1] (once per day IP for 7 days, dose inducing at least 50% inhibition of tumor growth) is reported as 10 mg/kg. In addition, in “in vivo”, the MTD at 7 days is below 10 mg/kg. In the data set on A2780 cells [3], this compound showed an IC50 of 70 nM.
On to `N.N.O=C([O-])C1(C(=O)[O-])CCC1.[Pt+2]` [carboplatin, reference compound], for which the “% inhibition observed with benchmark cytotoxic agent” value with H82 (SCLC) turned out to be 40%.

The term remaining activity denotes the activity still measured, relative to the control. A low value points to a large loss of activity. What is called IC50 is the concentration that gives 50% inhibition. Read a low IC50 as greater potency in that assay.
